{"source": "patent US20250170114A1", "about": "“METHODS OF TREATMENT USING T-TYPE CALCIUM CHANNEL MODULATORS” (Praxis Precision Medicines, Inc., priority 2022, published 2025)", "key": {"[1]": {"system": "harmaline-induced motor impairment in male SD rats", "experiment": "Rotarod test with harmaline in SD rats", "format": "in vivo, rat", "conditions": "harmaline 30 mg/kg, dose of 3 and 10 mg/kg", "protocol": "Each of six groups of male SD rats were subjected to a tremor assessment, followed by three ADL-like measures including open field test, rotarod test, and wire grip test after receiving doses of either vehicle, Formula (I), or propranolol, followed by either saline or harmaline, as outlined below in Table 22 below.\nFifteen minutes after the open field test, the rats were subjected to a rotarod test. The speed of the rotarod increased from 10 rpms to 60 rpms within the first five minutes of the test. FIG. 9 is a bar graph showing the mean of latency to fall in the rotarod test measured in rats that were administered 30 mg/kg harmaline and also administered 10 mg/kg propranolol or 1 mg/kg, 3 mg/kg or 10 mg/kg study drug."}, "participants with ET [2]": {"system": "participants with ET", "experiment": "Phase 2 trial: Patient Global Impression of Change (PGI-C)", "format": "in vivo, human", "conditions": "Part B RWD (RWAS), Day 70, study drug group, n = 5, vs randomization baseline", "excerpt": "The Patient Global Impression of Change (PGI-C) assesses the participant's improvement (or worsening). The participant is required to assess their condition relative to Baseline (Day 0) on a 7-point scale from 1 (very much improved) to 7 (very much worse). The assessment is made independent of whether the participant believes the improvement/worsening was drug-related or not. In some embodiments, the method results in a reduction in PGI-C score compared to baseline. The Columbia-Suicide Severity Rating Scale (C-SSRS) assesses suicidal ideation and behavior in participants during participation in a clinical trial of centrally-acting drugs. The C-SSRS is composed of 5 questions addressing suicidal behavior and 5 questions addressing suicidal ideation, with sub-questions assessing the severity. The tool should be administered via interview with the participant (by a trained operator/interviewer) and takes about 5 to 10 minutes to complete. In some embodiments, the method results in a reduction in suicidal ideation and/or behavior as compared to suicidal ideation and/or behavior prior to treatment. In other embodiments, the method results in no change in the C-SSRS score of a patient as compared to the C-SSRS score prior to treatment. Key safety measures included clinical laboratory evaluations, 12-lead ECG, C-SSRS, and vital signs. Key efficacy assessments included the TETRAS Performance subscale, TETRAS Upper Limb using accelerometry, CGI, and PGI-C. Blood samples were obtained for the determination of study drug plasma concentrations using a validated bioanalytical method and may also be used for method development and/or metabolite characterization. In both phases, key safety measures included clinical laboratory evaluations, 12-lead ECG, C-SSRS, and vital signs. Key efficacy assessments included the TETRAS Performance subscale, TETRAS Upper Limb using accelerometry, CGI, PGI-C, TETRAS ADL Subscale, QUEST, BDI-II, and BAI. Blood samples were obtained for the determination of study drug and metabolite plasma concentrations."}, "[3]": {"system": "rat spontaneous locomotor activity (sLMA)", "experiment": "Rat spontaneous locomotor activity (sLMA) assay", "format": "in vivo", "conditions": "rats, 0-30 min; compound of Formula (I) 1 mg/kg p.o., propranolol 1 or 3 mg/kg i.p., alone or in combination", "protocol": "[…] Rat sLMA was measured from 0-30 min (0 minutes is 60 minutes after administration of the compound of Formula (I) and 20 minutes after administration of propranolol)."}, "participants with ET [4]": {"system": "participants with ET", "experiment": "Phase 2 trial Part B: Beck Depression Inventory (BDI-II)", "format": "in vivo, human", "protocol": "The Beck Depression Inventory (BDI-II) is a list of 21 common symptoms of depression (Beck et al 1996). Each item is scored on a 4-point Likert scale (range of scores is 0 through 3). The time frame for assessment is the […] or since the last assessment. The BDI-II is divided into 2 subscales: Affective and Somatic. The subscale scores are calculated as the sum of the items comprising each subscale. The total score is calculated as the sum of all 21 items and ranges from 0 to 63. A total score of 0 to 13 indicates minimal depressive symptoms. A total score of 14 to 19 indicates mild depressive symptoms. A total score of 20 to 28 indicates moderate depressive symptoms. A total score of 29 to 63 indicates severe depressive symptoms. The BDI-II is assessed at screening to exclude participants with moderate to severe depressive symptoms. […] In both phases, key safety measures included clinical laboratory evaluations, 12-lead ECG, C-SSRS, and vital signs. Key efficacy assessments included the TETRAS Performance subscale, TETRAS Upper Limb using accelerometry, CGI, PGI-C, TETRAS ADL Subscale, QUEST, BDI-II, and BAI. Blood samples were obtained for the determination of study drug and metabolite plasma concentrations."}, "[5]": {"experiment": "Plasma and brain tissue concentrations in rats after harmaline testing", "format": "in vivo, rat", "conditions": "collected immediately after harmaline testing", "protocol": "Plasma and brain tissue sample collection (at 90 min post dosing of study compound) was evaluated in […]. N=15 in each group. Plasma and brain tissue samples were collected immediately after harmaline testing. Plasma sample number: 5×15=75. Brain tissue sample number: 5×15=75."}, "[6]": {"conditions": "Part B OLT (FAS), Day 7, n = 13"}, "[7]": {"conditions": "Part B OLT (FAS), Day 21, n = 12"}, "[8]": {"conditions": "Part B OLT (FAS), Day 42, n = 10"}, "[9]": {"conditions": "Part B RWD (RWAS), Day 56, Study drug, n = 6"}, "[10]": {"conditions": "Part B RWD (RWAS), Day 70, Study drug, n = 5"}}}
{"smiles": "CC(C)(C)NC(=O)CN1CCC(CNC(=O)c2cc(F)cc(Cl)c2)CC1.Cl", "note": "[Study drug]", "values": [{"measurement": "latency to fall in rotarod test vs vehicle and harmaline only", "setting": "[1]; listed as Formula (I)", "result": "significantly attenuated"}, {"measurement": "latency to fall in rotarod test vs vehicle and harmaline only", "setting": "[1]; listed as compound of Formula (I)", "result": "significant attenuation of motor impairment"}, {"measurement": "PGI-C Score 3 minimally improved", "setting": "participants with ET [2]", "result": "1 (20.0) n (%)"}, {"measurement": "PGI-C Score 4 no change", "setting": "participants with ET [2]", "result": "3 (60.0) n (%)"}, {"measurement": "PGI-C Score 6 much worse", "setting": "participants with ET [2]", "result": "1 (20.0) n (%)"}, {"measurement": "total sLMA (total distance travelled)", "setting": "[3]", "result": "do not significantly reduce"}, {"measurement": "BDI-II Depressive Symptoms Mild (14-19)", "setting": "participants with ET [4]; [6]", "result": "1 n (%)"}, {"measurement": "BDI-II Depressive Symptoms Minimal (0-13)", "setting": "participants with ET [4]; [6]", "result": "12 n (%)"}, {"measurement": "BDI-II Depressive Symptoms Moderate (20-28)", "setting": "participants with ET [4]; [6]", "result": "0 n (%)"}, {"measurement": "BDI-II Depressive Symptoms Severe (29-63)", "setting": "participants with ET [4]; [6]", "result": "0 n (%)"}, {"measurement": "BDI-II Depressive Symptoms Mild (14-19)", "setting": "participants with ET [4]; [7]", "result": "1 n (%)"}, {"measurement": "BDI-II Depressive Symptoms Minimal (0-13)", "setting": "participants with ET [4]; [7]", "result": "11 n (%)"}, {"measurement": "BDI-II Depressive Symptoms Moderate (20-28)", "setting": "participants with ET [4]; [7]", "result": "0 n (%)"}, {"measurement": "BDI-II Depressive Symptoms Severe (29-63)", "setting": "participants with ET [4]; [7]", "result": "0 n (%)"}, {"measurement": "BDI-II Depressive Symptoms Mild (14-19)", "setting": "participants with ET [4]; [8]", "result": "0 n (%)"}, {"measurement": "BDI-II Depressive Symptoms Minimal (0-13)", "setting": "participants with ET [4]; [8]", "result": "10 n (%)"}, {"measurement": "BDI-II Depressive Symptoms Moderate (20-28)", "setting": "participants with ET [4]; [8]", "result": "0 n (%)"}, {"measurement": "BDI-II Depressive Symptoms Severe (29-63)", "setting": "participants with ET [4]; [8]", "result": "0 n (%)"}, {"measurement": "BDI-II Depressive Symptoms Mild (14-19)", "setting": "participants with ET [4]; [9]", "result": "0 n (%)"}, {"measurement": "BDI-II Depressive Symptoms Minimal (0-13)", "setting": "participants with ET [4]; [9]", "result": "6 n (%)"}, {"measurement": "BDI-II Depressive Symptoms Moderate (20-28)", "setting": "participants with ET [4]; [9]", "result": "0 n (%)"}, {"measurement": "BDI-II Depressive Symptoms Severe (29-63)", "setting": "participants with ET [4]; [9]", "result": "0 n (%)"}, {"measurement": "BDI-II Depressive Symptoms Mild (14-19)", "setting": "participants with ET [4]; [10]", "result": "1 n (%)"}, {"measurement": "BDI-II Depressive Symptoms Minimal (0-13)", "setting": "participants with ET [4]; [10]", "result": "4 n (%)"}, {"measurement": "BDI-II Depressive Symptoms Moderate (20-28)", "setting": "participants with ET [4]; [10]", "result": "0 n (%)"}, {"measurement": "BDI-II Depressive Symptoms Severe (29-63)", "setting": "participants with ET [4]; [10]", "result": "0 n (%)"}, {"measurement": "change in BDI-II scores", "setting": "participants with ET [4]; Part B, pre-dose baseline to Day 70", "result": "no clinically meaningful change over time"}, {"measurement": "plasma and brain concentrations", "setting": "[5]", "result": "consistent with those measured in previous studies"}]}
